This passage reports DC50 results from US12570671B2 (BRISTOL-MYERS SQUIBB COMPANY, priority 2020, dated 2026).

Where only a bound is given, the exact number is not on record here.

The target in test [1] is Ikaros (Homo sapiens, UniProt Q13422+Q96SW2). In words: Helios Cellular Degradation Assay (Ikaros readout). The note with it: Jurkat cells, 72 h incubation, Ikaros-Alexa488 antibody staining, flow cytometry; read-out: Ikaros Jurkat IC50. The class given is cell-based. Details: endogenous in cells; host or cells: Jurkat. As to the method: (§1) Jurkat cells were plated at 80,000 cells/well in 40 μL RPMI+10% FBS in a 384 well cell culture plate prior to using acoustic dispensing technology for adding compound of interest. Cell cultures were incubated for 72 h at 37° C. and 5% C02. In order to facilitate analysis, cell cultures were spun down at 200 rpm for 5 min and the supernatant was discarded. After shaking the plate to dislodge the cell pellet, cells were resuspended in 50 μL of Fixation Buffer (eBioScience FoxP3 buffer set 00-5523-00) for 60 min at room temperature. After centrifuging and discarding the supernatant, cells were permeabilized with 50 μL of Permeabilization buffer (eBioScience FoxP3 buffer set 00-5523-00) for 10 min at room temperature. Following permeabilization, cells were spun down and the supernatant was replaced with 20 μL fluorescently labelled antibodies against Helios, Ikaros and Aiolos or corresponding Isotype controls in 1× Permeabilization buffer (Ikaros-Alexa488 [Biolegend, Cat #368408, 1:50], Helios-PE [CST, Cat #29360, 1:50], Aiolos-Alexa647 [Biolegend, Cat #371106Biolegend, 1:25]) and staining reactions were incubated for 1 h at room temperature; protected from light. Subsequently, 30 μL of 1× Permeabilization buffer was added prior to centrifuging the cells and discarding the supernatant. Stained cells were resuspended in 25 μL of flow cytometry staining buffer (PBS+0.2% BSA) and analyzed using an Intellicyt Ique Plus flow cytometer.
Ikaros, sequence (Q13422 whole entry): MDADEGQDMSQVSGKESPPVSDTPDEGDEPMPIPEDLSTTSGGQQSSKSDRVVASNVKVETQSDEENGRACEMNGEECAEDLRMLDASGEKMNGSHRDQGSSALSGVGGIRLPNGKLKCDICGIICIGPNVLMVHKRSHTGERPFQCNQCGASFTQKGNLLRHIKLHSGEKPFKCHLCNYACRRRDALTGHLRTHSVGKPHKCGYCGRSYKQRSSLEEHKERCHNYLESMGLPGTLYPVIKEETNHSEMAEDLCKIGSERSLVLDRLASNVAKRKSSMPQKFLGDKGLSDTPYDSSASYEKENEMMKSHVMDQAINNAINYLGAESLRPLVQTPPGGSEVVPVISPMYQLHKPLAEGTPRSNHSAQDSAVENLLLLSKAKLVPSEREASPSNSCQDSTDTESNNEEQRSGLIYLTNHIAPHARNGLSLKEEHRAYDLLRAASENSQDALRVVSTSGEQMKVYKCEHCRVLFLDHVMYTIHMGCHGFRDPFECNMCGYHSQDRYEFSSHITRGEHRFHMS
Ikaros, sequence (Q96SW2 whole entry): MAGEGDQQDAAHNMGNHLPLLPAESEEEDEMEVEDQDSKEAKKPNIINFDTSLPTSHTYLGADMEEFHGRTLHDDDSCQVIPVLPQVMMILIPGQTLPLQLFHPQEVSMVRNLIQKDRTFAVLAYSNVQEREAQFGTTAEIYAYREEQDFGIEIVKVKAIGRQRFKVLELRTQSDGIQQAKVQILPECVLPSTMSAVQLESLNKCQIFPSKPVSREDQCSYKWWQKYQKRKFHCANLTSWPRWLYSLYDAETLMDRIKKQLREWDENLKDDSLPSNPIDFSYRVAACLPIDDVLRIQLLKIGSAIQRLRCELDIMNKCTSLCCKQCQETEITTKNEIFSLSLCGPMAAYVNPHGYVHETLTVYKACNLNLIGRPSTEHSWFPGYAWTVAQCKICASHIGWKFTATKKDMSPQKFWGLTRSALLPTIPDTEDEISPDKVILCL
Ikaros, sequence (Q16531 whole entry partner): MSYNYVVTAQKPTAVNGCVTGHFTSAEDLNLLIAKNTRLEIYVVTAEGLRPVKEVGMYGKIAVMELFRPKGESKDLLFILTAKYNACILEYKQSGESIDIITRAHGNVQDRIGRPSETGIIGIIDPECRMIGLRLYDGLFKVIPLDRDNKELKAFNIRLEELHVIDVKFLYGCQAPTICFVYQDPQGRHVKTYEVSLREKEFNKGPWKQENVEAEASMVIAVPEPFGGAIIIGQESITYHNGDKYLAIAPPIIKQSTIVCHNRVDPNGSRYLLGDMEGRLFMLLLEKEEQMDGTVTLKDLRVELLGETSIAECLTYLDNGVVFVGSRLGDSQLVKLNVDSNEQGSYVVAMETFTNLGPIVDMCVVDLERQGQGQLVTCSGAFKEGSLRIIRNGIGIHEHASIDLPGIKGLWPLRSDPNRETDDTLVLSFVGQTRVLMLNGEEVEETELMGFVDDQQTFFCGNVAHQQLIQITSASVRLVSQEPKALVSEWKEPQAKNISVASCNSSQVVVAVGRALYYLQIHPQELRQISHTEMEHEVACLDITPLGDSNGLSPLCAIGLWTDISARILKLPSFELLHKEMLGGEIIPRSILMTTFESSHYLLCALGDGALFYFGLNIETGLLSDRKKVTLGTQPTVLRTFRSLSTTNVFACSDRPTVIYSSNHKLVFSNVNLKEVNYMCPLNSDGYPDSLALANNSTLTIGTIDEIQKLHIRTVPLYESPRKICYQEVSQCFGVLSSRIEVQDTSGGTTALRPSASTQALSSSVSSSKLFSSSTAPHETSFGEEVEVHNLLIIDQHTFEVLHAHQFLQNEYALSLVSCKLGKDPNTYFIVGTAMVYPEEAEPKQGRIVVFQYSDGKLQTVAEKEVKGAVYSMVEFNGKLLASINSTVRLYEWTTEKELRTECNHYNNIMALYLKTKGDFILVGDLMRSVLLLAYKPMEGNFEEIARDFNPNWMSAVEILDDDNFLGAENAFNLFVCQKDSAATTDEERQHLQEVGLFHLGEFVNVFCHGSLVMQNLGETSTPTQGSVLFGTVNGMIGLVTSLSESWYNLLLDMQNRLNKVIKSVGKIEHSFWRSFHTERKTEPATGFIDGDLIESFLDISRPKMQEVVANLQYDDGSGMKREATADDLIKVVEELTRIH

Test [2] concerns the target Helios (Homo sapiens, UniProt Q96SW2+Q9UKS7). In words: Helios Cellular Degradation Assay (Helios readout). The following applies: Jurkat cells, 72 h incubation, Helios-PE antibody staining, flow cytometry; read-out: Helios Jurkat IC50. Set-up: endogenous in cells; host or cells: Jurkat. The format is cell-based. As to the method: as §1
A general note: Flow cytometry measures light scatter and fluorescence of single cells or particles in a stream.

Helios, sequence (Q9UKS7 whole entry): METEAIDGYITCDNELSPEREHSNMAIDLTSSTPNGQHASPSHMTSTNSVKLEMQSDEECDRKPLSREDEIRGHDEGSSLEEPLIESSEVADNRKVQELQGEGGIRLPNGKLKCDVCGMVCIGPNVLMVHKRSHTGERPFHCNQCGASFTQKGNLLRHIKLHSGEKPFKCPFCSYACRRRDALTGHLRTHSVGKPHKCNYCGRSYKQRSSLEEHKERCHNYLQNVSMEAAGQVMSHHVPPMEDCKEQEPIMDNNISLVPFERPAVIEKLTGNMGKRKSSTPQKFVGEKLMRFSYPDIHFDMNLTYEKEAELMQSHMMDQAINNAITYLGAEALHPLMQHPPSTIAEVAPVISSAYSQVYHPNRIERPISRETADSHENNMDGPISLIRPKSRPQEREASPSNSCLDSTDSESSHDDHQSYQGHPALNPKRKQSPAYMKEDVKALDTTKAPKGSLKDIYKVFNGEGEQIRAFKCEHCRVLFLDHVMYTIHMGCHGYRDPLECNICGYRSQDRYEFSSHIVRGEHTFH
Helios, sequence (Q96SW2 whole entry): as the sequence (Q96SW2 whole entry) above
Helios, sequence (Q16531 whole entry partner): as the sequence (Q16531 whole entry partner) above

Turning to `CC(=O)N(C)c1nc(-c2ccc3c(c2)CN(C2CCC(=O)NC2=O)C3=O)cc2ccccc12` (centres unmarked) [Example 52, N-{3-[2-(2,6-Dioxopiperidin-3-yl)-1-oxo-2,3-dihydro-1H-isoindol-5-yl]isoquinolin-1-yl}-N-methylacetamide], the DC50 was more than 20 µM in test [1] and 0.21 µM in test [2].
Regarding `Nc1cc2cccnc2c(-c2ccc3c(c2)CN(C2CCC(=O)NC2=O)C3=O)n1` (centres unmarked) [Example 53, 3-[5-(6-Amino-1,7-naphthyridin-8-yl)-1-oxo-2,3-dihydro-1H-isoindol-2-yl]piperidine-2,6-dione], the results for the DC50 in test [1] and in test [2] were more than 20 µM and 0.085 µM, respectively.
Turning to `COc1cccc2c(-c3ccc4c(c3)CN(C3CCC(=O)NC3=O)C4=O)nc(N)cc12` (centres unmarked) [Example 54, 3-[5-(3-Amino-5-methoxyisoquinolin-1-yl)-1-oxo-2,3-dihydro-1H-isoindol-2-yl]piperidine-2,6-dione], the figures for the DC50 in test [1] and in test [2] were 5 µM and 0.04 µM, respectively.
Turning to `CC(=O)N1CCN(c2nc(-c3ccc4c(c3)CN(C3CCC(=O)NC3=O)C4=O)nc3ncccc23)CC1` (centres unmarked) [Example 55, 3-(5-(4-(4-acetylpiperazin-1-yl)pyrido[2,3-d]pyrimidin-2-yl)-1-oxoisoindolin-2-yl)piperidine-2,6-dione], the values for the DC50 in test [1] and in test [2] were 8.1 µM and 1 µM, respectively.
The corresponding values for `O=C1CCC(N2Cc3cc(-c4ncc(Br)c5cc[nH]c45)ccc3C2=O)C(=O)N1` (centres unmarked) [Example 56, 3-(5-{4-bromo-1H-pyrrolo[2,3-c]pyridin-7-yl}-1-oxo-2,3-dihydro-1H-isoindol-2-yl) piperidine-2,6-dione] are 0.049 µM and 0.027 µM.
Consider `Nc1nc(-c2ccc3c(c2)CN(C2CCC(=O)NC2=O)C3=O)cc2ncccc12` (centres unmarked) [Example 57, 3-[5-(5-amino-1,6-naphthyridin-7-yl)-1-oxo-2,3-dihydro-1H-isoindol-2-yl]piperidine-2,6-dione], for which the DC50 was more than 20 µM in test [1] and 0.007 µM in test [2].
`COc1ccc2c(-c3ccc4c(c3)CN(C3CCC(=O)NC3=O)C4=O)nc(OC)cc2c1` (centres unmarked) [Example 58, 3-[5-(3,6-dimethoxyisoquinolin-1-yl)-1-oxo-2,3-dihydro-1H-isoindol-2-yl]piperidine-2,6-dione]: the DC50 in test [1] was 0.009 µM; in test [2] it was 0.001 µM.
On to `O=Cc1cc2c(-c3ccc4c(c3)CN(C3CCC(=O)NC3=O)C4=O)nccc2s1` (centres unmarked) [Example 60, 4-[2-(2,6-dioxopiperidin-3-yl)-1-oxo-2,3-dihydro-1H-isoindol-5-yl]thieno[3,2-c]pyridine-2-carbaldehyde], for which the DC50 in test [1] was 0.16 µM; in test [2] it was 0.015 µM.
The corresponding values for `Cc1cc(=O)c2ccc(-c3ccc4c(c3)CN(C3CCC(=O)NC3=O)C4=O)nc2o1` (centres unmarked) [Example 62, 3-(5-{2-methyl-4-oxo-4H-pyrano[2,3-b]pyridin-7-yl}-1-oxo-2,3-dihydro-1H-isoindol-2-yl)piperidine-2,6-dione] are more than 20 µM and more than 20 µM.
Consider `O=C1CCC(N2Cc3cc(-c4nccc5cccnc45)ccc3C2=O)C(=O)N1` (centres unmarked) [Example 64, 3-[5-(1,7-naphthyridin-8-yl)-1-oxo-2,3-dihydro-1H-isoindol-2-yl]piperidine-2,6-dione], for which the DC50 in test [1] and in test [2] was more than 20 µM throughout.
On to `Nc1cn2nc(-c3ccc4c(c3)CN(C3CCC(=O)NC3=O)C4=O)ccc2n1` (centres unmarked) [Example 65, 3-(5-{2-aminoimidazo[1,2-b]pyridazin-6-yl}-1-oxo-2,3-dihydro-1H-isoindol-2-yl)piperidine-2,6-dione], for which the DC50 in test [1] and in test [2] was more than 20 µM in each case.
Consider `O=C1CCC(N2Cc3cc(-c4nccc5ccccc45)ccc3C2=O)C(=O)N1` (centres unmarked) [Example 66, 3-[5-(isoquinolin-1-yl)-1-oxo-2,3-dihydro-1H-isoindol-2-yl]piperidine-2,6-dione], for which the values for the DC50 in test [1] and in test [2] were 0.025 µM and 0.006 µM, respectively.
As for `O=C1CCC(N2Cc3cc(-c4cc5ccccc5cn4)ccc3C2=O)C(=O)N1` (centres unmarked) [Example 67, 3-[5-(isoquinolin-3-yl)-1-oxo-2,3-dihydro-1H-isoindol-2-yl]piperidine-2,6-dione], the DC50 in test [1] turned out to be 3 µM; in test [2], 0.042 µM.
Take `Nc1nccc(-c2ccc3c(c2)CN(C2CCC(=O)NC2=O)C3=O)n1` (centres unmarked) [Example 70, 3-(5-(2-aminopyrimidin-4-yl)-1-oxoisoindolin-2-yl)piperidine-2,6-dione]: the DC50 is more than 20 µM in test [1] and 0.48 µM in test [2].
Regarding `O=C1CCC(N2Cc3cc(-c4nccc(-c5ccccc5)n4)ccc3C2=O)C(=O)N1` (centres unmarked) [Example 71, 3-(1-oxo-5-(4-phenylpyrimidin-2-yl)isoindolin-2-yl)piperidine-2,6-dione], the DC50 in test [1] was more than 20 µM; in test [2] it was 0.075 µM.
On to `O=C1CCC(N2Cc3cc(-c4nccc(-c5cccnc5)n4)ccc3C2=O)C(=O)N1` (centres unmarked) [Example 72, 3-(1-oxo-5-(4-(pyridin-3-yl)pyrimidin-2-yl)isoindolin-2-yl)piperidine-2,6-dione], for which the DC50 in test [1] and in test [2] was more than 20 µM in each case.
For the compound `Nc1nc(-c2ccccc2)nc(-c2ccc3c(c2)CN(C2CCC(=O)NC2=O)C3=O)n1` (centres unmarked) [Example 73, 3-(5-(4-amino-6-phenyl-1,3,5-triazin-2-yl)-1-oxoisoindolin-2-yl)piperidine-2,6-dione], the DC50 in test [1] was 0.45 µM; in test [2], 0.067 µM.
In the case of `O=C1CCC(N2Cc3cc(-c4cc(-c5ccccc5)ccn4)ccc3C2=O)C(=O)N1` (centres unmarked) [Example 74, 3-(1-oxo-5-(4-phenylpyridin-2-yl)isoindolin-2-yl)piperidine-2,6-dione], the DC50 in test [1] was 0.034 µM; in test [2], 0.032 µM.
The corresponding values for `O=C1CCC(N2Cc3cc(-c4nccc(-c5ccccn5)n4)ccc3C2=O)C(=O)N1` (centres unmarked) [Example 75, 3-(1-oxo-5-(4-(pyridin-2-yl)pyrimidin-2-yl)isoindolin-2-yl)piperidine-2,6-dione] are more than 20 µM and 1.2 µM.
Consider `N#Cc1ccnnc1-c1ccc2c(c1)CN(C1CCC(=O)NC1=O)C2=O` (centres unmarked) [Example 76, 3-(2-(2,6-dioxopiperidin-3-yl)-1-oxoisoindolin-5-yl)pyridazine-4-carbonitrile], for which the DC50 in test [1] and in test [2] was more than 20 µM each time.
In the case of `N#Cc1ccc(-c2ccc3c(c2)CN(C2CCC(=O)NC2=O)C3=O)nn1` (centres unmarked) [Example 77, 6-[2-(2,6-Dioxopiperidin-3-yl)-1-oxo-2,3-dihydro-1H-isoindol-5-yl]pyridazine-3-carbonitrile], the DC50 in test [1] and in test [2] was more than 20 µM throughout.
For the compound `NC(=O)c1ccc(-c2ccc3c(c2)CN(C2CCC(=O)NC2=O)C3=O)nn1` (centres unmarked) [Example 78, 6-[2-(2,6-dioxopiperidin-3-yl)-1-oxo-2,3-dihydro-1H-isoindol-5-yl]pyridazine-3-carboxamide], the DC50 was more than 20 µM in test [1] and 2.8 µM in test [2].
As to `Nc1ccc([N+](=O)[O-])c(-c2ccc3c(c2)CN(C2CCC(=O)NC2=O)C3=O)n1` (centres unmarked) [Example 79, 3-[5-(6-Amino-3-nitropyridin-2-yl)-1-oxo-2,3-dihydro-1H-isoindol-2-yl]piperidine-2,6-dione], the DC50 in test [1] and in test [2] was more than 20 µM each time.
With `N#Cc1cnc(-c2ccc3c(c2)CN(C2CCC(=O)NC2=O)C3=O)nc1N` (centres unmarked) [Example 80, 4-Amino-2-[2-(2,6-dioxopiperidin-3-yl)-1-oxo-2,3-dihydro-1H-isoindol-5-yl]pyrimidine-5-carbonitrile], the results for the DC50 in test [1] and in test [2] were more than 20 µM and 0.32 µM, respectively.
The like results for `NC(=O)c1cnc(-c2ccc3c(c2)CN(C2CCC(=O)NC2=O)C3=O)nc1N` (centres unmarked) [Example 81, 4-amino-2-[2-(2,6-dioxopiperidin-3-yl)-1-oxo-2,3-dihydro-1H-isoindol-5-yl]pyrimidine-5-carboxamide] were, in that order, more than 20 µM and 3.9 µM.
Consider `Nc1nc(-c2ccc3c(c2)CN([C@H]2CCC(=O)NC2=O)C3=O)cc2ccccc12` [Example 82, (3S)-3-[5-(1-aminoisoquinolin-3-yl)-1-oxo-2,3-dihydro-1H-isoindol-2-yl]piperidine-2,6-dione], for which the DC50 was not below 20 µM in test [1] and 0.004 µM in test [2].
For the compound `Nc1nc(-c2ccc3c(c2)CN([C@@H]2CCC(=O)NC2=O)C3=O)cc2ccccc12` [Example 83, (3R)-3-[5-(1-aminoisoquinolin-3-yl)-1-oxo-2,3-dihydro-1H-isoindol-2-yl]piperidine-2,6-dione], the figures for the DC50 in test [1] and in test [2] were not below 20 µM and 0.03 µM, respectively.
For the compound `CCOc1c(-c2ccc3c(c2)CN([C@H]2CCC(=O)NC2=O)C3=O)nc(N)c2ccccc12` [Example 84, (3S)-3-[5-(1-amino-4-ethoxyisoquinolin-3-yl)-1-oxo-2,3-dihydro-1H-isoindol-2-yl]piperidine-2,6-dione], the DC50 in test [1] is not below 20 µM; in test [2], 0.003 µM.
